Assay results taken from BindingDB's records for doi:10.7270/Q23B5XSC (Nmmlsc, 2012).

Each molecule was assayed against C-C chemokine receptor type 5 (Homo sapiens, UniProt P51681).
Sequence of C-C chemokine receptor type 5 (P51681 whole entry): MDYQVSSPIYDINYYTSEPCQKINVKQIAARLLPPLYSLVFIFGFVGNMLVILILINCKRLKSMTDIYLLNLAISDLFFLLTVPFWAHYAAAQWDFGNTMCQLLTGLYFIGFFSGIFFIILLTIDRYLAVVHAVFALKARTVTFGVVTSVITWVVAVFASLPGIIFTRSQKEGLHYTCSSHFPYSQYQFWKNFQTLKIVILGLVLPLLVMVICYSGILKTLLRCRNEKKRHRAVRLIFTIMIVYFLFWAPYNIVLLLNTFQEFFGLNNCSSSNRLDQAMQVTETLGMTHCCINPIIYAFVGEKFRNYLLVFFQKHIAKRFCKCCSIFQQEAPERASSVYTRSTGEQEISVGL

| Compound | EC50 |
| --- | --- |
| CN(CC(=O)N1CCN(c2ccccn2)CC1)S(=O)(=O)c1ccc(Cl)cc1 | 7.46 nM |
| CC(=O)Nc1ccc(S(=O)(=O)NCCc2csc(-c3cccnc3)n2)cc1 | 19.6 nM |
| CCOC(=O)c1ccc(NC(=O)Cn2nnc(-c3ccccc3)n2)cc1 [SMR000021419] | 123 nM |
| CCOC(=O)c1ccc(NC(=O)COc2ccc(S(=O)(=O)N3CCCC3)cc2)cc1 [SMR000124597] | 188 nM |
